Measurements taken from patent US20180065917A1, “IMMUNE CHECKPOINT INHIBITORS, COMPOSITIONS AND METHODS THEREOF” (Polaris Pharmaceuticals, Inc., priority 2016, published 2018).
pIC50: −log10 of the molar value.

How the values were obtained:
[1] = molecular target: T1, PD-L1/PD-1 complex formation (Homo sapiens, UniProt Q9NZQ7); test: PD-L1/PD-1 Interaction Assay (ELISA platform); assay type: binding; conditions: human PD-1-Fc coated plates, PD-L1-Fc-biotin 0.1 μg/ml, compounds pre-incubated 2 hours
T1 construct: purchased BPS Bioscience
Description: The ability of compounds to block PD-L1/PD-1 complex formation was evaluated using biochemical interaction assay based on the ELISA platform.
EIA/RIA high binding 96-well plates (Costar) were coated with human PD-1-Fc protein diluted in PBS to 0.5 μg/ml overnight at 4° C. The PD-1-Fc coated plates were washed in PBST and blocked in blocking buffer (2% BSA in PBST). Serially diluted compounds were pre-incubated with PD-L1-Fc-biotin (0.1 μg/ml final) for 2 hours on a shaker at room temperature. The PD-1-Fc coated plates were washed with PBST and solutions containing PD-L1 and compounds were added to the plates. The PD-1-Fc coated plates were incubated with PD-L1 and compound solution for 2 hours on a shaker at room temperature. After the incubation unbound PD-L1 was washed away with PBST and plates were incubated with the blocking buffer for 10 minutes. The bound PD-L1-Fc-biotin was detected with streptavidin-HRP and TMB substrate. The plates were read at OD450 nm in a plate reader (i3 from Molecular Devices) and percentages of inhibition of PD-L1/PD-1 complex formation were calculated.
PD-1-Fc protein was made at Polaris and PD-L1-Fc was purchased from BPS Bioscience.

T1 sequence (Q9NZQ7 19-239 limits assumed, one chain of several): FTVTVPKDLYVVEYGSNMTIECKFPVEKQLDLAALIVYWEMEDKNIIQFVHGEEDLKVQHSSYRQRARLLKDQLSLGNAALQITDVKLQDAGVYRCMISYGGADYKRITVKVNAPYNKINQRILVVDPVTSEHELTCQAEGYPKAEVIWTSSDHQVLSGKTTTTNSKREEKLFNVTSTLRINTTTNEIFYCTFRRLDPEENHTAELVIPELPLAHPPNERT

pIC50 [1]	melting point [°C]	Compound
4.52 to 6.00	143 to 147	Cc1c(COc2ccc(CN3CCCC[C@H]3C(=O)O)cc2O)cccc1-c1cccc(COc2ccc(CN3CCCC[C@H]3C(=O)O)cc2O)c1C [Example 21, (2S,2′S)-1,1′-(((((2,2′-Dimethyl-[1,1′-biphenyl]-3,3′-diyl)bis(methylene))bis(oxy))bis(3-hydroxy-4,1-phenylene))bis(methylene))bis(piperidine-2-carboxylic acid)]
4.52 to 6.00	192 to 196	COc1cc(CN2CCCC[C@H]2C(=O)O)ccc1OCc1cccc(-c2cccc(COc3ccc(CN4CCCC[C@H]4C(=O)O)cc3OC)c2C)c1C [Example 20, (2S,2′S)-1,1′-(((((2,2′-Dimethyl-[1,1′-biphenyl]-3,3′-diyl)bis(methylene))bis(oxy))bis(3-methoxy-4,1-phenylene))bis(methylene))bis(piperidine-2-carboxylic acid)]
8.00 to 10.00	287 to 291	Cc1c(COc2ccc(CN3CCCC[C@H]3C(=O)O)cc2C(F)(F)F)cccc1-c1cccc(COc2ccc(CN3CCCC[C@H]3C(=O)O)cc2C(F)(F)F)c1C [Example 13, (2S,2′S)-1,1′-(((((2,2′-Dimethyl-[1,1′-biphenyl]-3,3′-diyl)bis(methylene))bis(oxy))bis(3-(trifluoromethyl)-4,1-phenylene))bis(methylene))bis(piperidine-2-carboxylic acid)]
4.52 to 6.00	306 to 310	O=C(O)[C@@H]1CCCCN1Cc1ccc(OCc2cccc(-c3cccc(COc4ccc(CN5CCCC[C@H]5C(=O)O)cc4Br)c3)c2)c(Br)c1 [Example 8, (2S,2′S)-1,1′-(((([1,1′-Biphenyl]-3,3′-diylbis(methylene))bis(oxy))bis(3-bromo-4,1-phenylene))bis(methylene))bis(piperidine-2-carboxylic acid)]
6.00 to 6.96	204 to 208	O=C(O)[C@@H]1CCCCN1Cc1ccc(OCc2cccc(-c3cccc(COc4ccc(CN5CCCC[C@H]5C(=O)O)cc4Br)c3F)c2F)c(Br)c1 [Example 10, (2S,2′S)-1,1′-(((((2,2′-Difluoro-[1,1′-biphenyl]-3,3′-diyl)bis(methylene))bis(oxy))bis(3-bromo-4,1-phenylene))bis(methylene))bis(piperidine-2-carboxylic acid)]
7.00 to 7.96	191 to 195	Cc1cc(CN2CCCC[C@H]2C(=O)O)ccc1OCc1cccc(-c2cccc(COc3ccc(CN4CCCC[C@H]4C(=O)O)cc3C)c2C)c1C [Example 11, (2S,2′S)-1,1′-(((((2,2′-Dimethyl-[1,1′-biphenyl]-3,3′-diyl)bis(methylene))bis(oxy))bis(3-methyl-4,1-phenylene))bis(methylene))bis(piperidine-2-carboxylic acid)]

Second part, the compound before the results:

Compound	pIC50 [1]	melting point [°C]
O=C(O)[C@@H]1CCCCN1Cc1ccc(OCc2cccc(-c3cccc(COc4ccc(CN5CCCC[C@H]5C(=O)O)cc4Br)c3Cl)c2Cl)c(Br)c1 [Example 9, (2S,2′S)-1,1′-(((((2,2′-Dichloro-[1,1′-biphenyl]-3,3′-diyl)bis(methylene))bis(oxy))bis(3-bromo-4,1-phenylene))bis(methylene))bis(piperidine-2-carboxylic acid)]	8.00 to 10.00	184 to 188
Cc1c(COc2ccc(CN3CCCC[C@H]3C(=O)O)cc2Cl)cccc1-c1cccc(COc2ccc(CN3CCCC[C@H]3C(=O)O)cc2Cl)c1C [Example 12, (2S,2′S)-1,1′-(((((2,2′-Dimethyl-[1,1′-biphenyl]-3,3′-diyl)bis(methylene))bis(oxy))bis(3-chloro-4,1-phenylene))bis(methylene))bis(piperidine-2-carboxylic acid)]	7.00 to 7.96	184 to 188
CC(=O)NCCNCc1ccc(OCc2cccc(-c3cccc(COc4ccc(CNCCNC(C)=O)cc4Br)c3C)c2C)c(Br)c1 [Example 6, N,N′-(((((((2,2′-Dimethyl-[1,1′-biphenyl]-3,3′-diyl)bis(methylene))bis(oxy))bis(3-bromo-4,1-phenylene))bis(methylene))bis(azanediyl))bis(ethane-2,1-diyl))diacetamide]	7.00 to 7.96	95 to 99
COc1cc(OCc2cccc(-c3cccc(COc4cc(OC)c(CNCCO)c(OC)c4)c3C)c2C)cc(OC)c1CNCCO [Example 22, 2,2′-((((((2,2′-Dimethyl-[1,1′-biphenyl]-3,3′-diyl)bis(methylene))bis(oxy))bis(2,6-dimethoxy-4,1-phenylene))bis(methylene))bis(azanediyl))bis(ethan-1-ol)]	7.00 to 7.96	86 to 90
